Data reported in ChEMBL document CHEMBL4190322, “Structure-based development of novel triazoles and related thiazolotriazoles as anticancer agents and Cdc25A/B phosphatase inhibitors. Synthesis, in vitro biological evaluation, molecular docking and in silico ADME-T studies” (Eur J Med Chem, 2017).
The source made the active and inactive calls. No cut-off for these calls is given here.

Tests used:
Format in all cases: functional
[1] = test system: HT-29; assay: Growth inhibition of human HT-29 cells at 10 uM after 48 hrs by SRB assay relative to control
[2] = test system: OVCAR-8; assay: Growth inhibition of human OVCAR8 cells at 10 uM after 48 hrs by SRB assay relative to control
[3] = test system: CCRF-CEM; assay: Growth inhibition of human CCRF-CEM cells at 10 uM after 48 hrs by SRB assay relative to control; conditions: read-out: GI
[4] = test system: K562; assay: Growth inhibition of human K562 cells at 10 uM after 48 hrs by SRB assay relative to control; conditions: K562, 48 h, read-out: GI
[5] = test system: SR; assay: Growth inhibition of human SR cells at 10 uM after 48 hrs by SRB assay relative to control; conditions: read-out: GI
[6] = test system: MOLT-4; assay: Growth inhibition of human MOLT4 cells at 10 uM after 48 hrs by SRB assay relative to control
[7] = test system: RPMI-8226; assay: Growth inhibition of human RPMI8226 cells at 10 uM after 48 hrs by SRB assay relative to control; conditions: RPMI-8226, 48 h, read-out: GI
[8] = test system: HL-60; assay: Growth inhibition of human HL60 cells at 10 uM after 48 hrs by SRB assay relative to control
[9] = test system: A549; assay: Growth inhibition of human A549 cells at 10 uM after 48 hrs by SRB assay relative to control
[10] = test system: HOP-62; assay: Growth inhibition of human HOP62 cells at 10 uM after 48 hrs by SRB assay relative to control; conditions: HOP-62, 48 h, read-out: GI
[11] = test system: HOP-92; assay: Growth inhibition of human HOP92 cells at 10 uM after 48 hrs by SRB assay relative to control; conditions: HOP-92, 48 h, read-out: GI
[12] = test system: NCI-H226; assay: Growth inhibition of human NCI-H226 cells at 10 uM after 48 hrs by SRB assay relative to control
[13] = test system: NCI-H23; assay: Growth inhibition of human NCI-H23 cells at 10 uM after 48 hrs by SRB assay relative to control; conditions: NCI-H23, 48 h, read-out: GI
[14] = test system: NCI-H322M; assay: Growth inhibition of human NCI-H322M cells at 10 uM after 48 hrs by SRB assay relative to control
[15] = test system: NCI-H522; assay: Growth inhibition of human NCI-H522 cells at 10 uM after 48 hrs by SRB assay relative to control; conditions: NCI-H522, 48 h, read-out: GI
[16] = test system: HCT-116; assay: Growth inhibition of human HCT116 cells at 10 uM after 48 hrs by SRB assay relative to control
[17] = test system: KM12; assay: Growth inhibition of human KM12 cells at 10 uM after 48 hrs by SRB assay relative to control; conditions: KM12, 48 h, read-out: GI
[18] = test system: SF-268; assay: Growth inhibition of human SF268 cells at 10 uM after 48 hrs by SRB assay relative to control
[19] = test system: SNB-19; assay: Growth inhibition of human SNB19 cells at 10 uM after 48 hrs by SRB assay relative to control; conditions: SNB-19, 48 h, read-out: GI
[20] = test system: SNB-75; assay: Growth inhibition of human SNB75 cells at 10 uM after 48 hrs by SRB assay relative to control; conditions: SNB-75, 48 h, read-out: GI
[21] = test system: U-251; assay: Growth inhibition of human U251 cells at 10 uM after 48 hrs by SRB assay relative to control; conditions: U-251, 48 h, read-out: GI
[22] = test system: LOX IMVI; assay: Growth inhibition of human LOXIMVI cells at 10 uM after 48 hrs by SRB assay relative to control; conditions: read-out: GI
[23] = test system: SK-MEL-2; assay: Growth inhibition of human SK-MEL-2 cells at 10 uM after 48 hrs by SRB assay relative to control
[24] = test system: SK-MEL-5; assay: Growth inhibition of human SK-MEL-5 cells at 10 uM after 48 hrs by SRB assay relative to control
[25] = test system: UACC-257; assay: Growth inhibition of human UACC257 cells at 10 uM after 48 hrs by SRB assay relative to control
[26] = test system: UACC-62; assay: Growth inhibition of human UACC62 cells at 10 uM after 48 hrs by SRB assay relative to control
[27] = test system: OVCAR-3; assay: Growth inhibition of human OVCAR3 cells at 10 uM after 48 hrs by SRB assay relative to control
[28] = test system: OVCAR-4; assay: Growth inhibition of human OVCAR4 cells at 10 uM after 48 hrs by SRB assay relative to control
[29] = test system: NCI/ADR-RES; assay: Growth inhibition of human NCI/ADR-RES cells at 10 uM after 48 hrs by SRB assay relative to control; conditions: read-out: GI
[30] = test system: SK-OV-3; assay: Growth inhibition of human SKOV3 cells at 10 uM after 48 hrs by SRB assay relative to control; conditions: SK-OV-3, 48 h, read-out: GI
[31] = test system: 786-0; assay: Growth inhibition of human 786-0 cells at 10 uM after 48 hrs by SRB assay relative to control
[32] = test system: A498; assay: Growth inhibition of human A498 cells at 10 uM after 48 hrs by SRB assay relative to control
[33] = test system: CAKI-1; assay: Growth inhibition of human Caki1 cells at 10 uM after 48 hrs by SRB assay relative to control; conditions: CAKI-1, 48 h, read-out: GI
[34] = test system: RXF 393; assay: Growth inhibition of human RXF393 cells at 10 uM after 48 hrs by SRB assay relative to control
[35] = test system: UO-31; assay: Growth inhibition of human UO31 cells at 10 uM after 48 hrs by SRB assay relative to control; conditions: UO-31, 48 h, read-out: GI
[36] = test system: PC-3; assay: Growth inhibition of human PC3 cells at 10 uM after 48 hrs by SRB assay relative to control; conditions: PC-3, 48 h, read-out: GI
[37] = test system: MCF7; assay: Growth inhibition of human MCF7 cells at 10 uM after 48 hrs by SRB assay relative to control; conditions: MCF7, 48 h, read-out: GI
[38] = test system: Hs-578T; assay: Growth inhibition of human Hs 578T cells at 10 uM after 48 hrs by SRB assay relative to control
[39] = test system: MDA-MB-468; assay: Growth inhibition of human MDA-MB-468 cells at 10 uM after 48 hrs by SRB assay relative to control
[40] = test system: Malme-3M; assay: Growth inhibition of human MALME-3M cells at 10 uM after 48 hrs by SRB assay relative to control

| SMILES | growth inhibition (GI) [2] | inhibition of growth at 10 µM [3] [%] | inhibition of growth at 10 µM [4] [%] | inhibition of growth at 10 µM [5] [%] | inhibition of growth at 10 µM [7] [%] | growth inhibition (GI) [8] | inhibition of growth at 10 µM [10] [%] | inhibition of growth at 10 µM [11] [%] | growth inhibition (GI) [12] | inhibition of growth at 10 µM [13] [%] | inhibition of growth at 10 µM [15] [%] | growth inhibition (GI) [16] | inhibition of growth at 10 µM [17] [%] | growth inhibition (GI) [18] | inhibition of growth at 10 µM [19] [%] | inhibition of growth at 10 µM [20] [%] | inhibition of growth at 10 µM [21] [%] | inhibition of growth at 10 µM [22] [%] | growth inhibition (GI) [25] | growth inhibition (GI) [26] | further results |
| --- | --- | --- | --- | --- | --- | --- | --- | --- | --- | --- | --- | --- | --- | --- | --- | --- | --- | --- | --- | --- | --- |
| COc1ccc(Cc2nnc3sc(SCC(=O)Nc4ccc(Cl)cc4)nn23)cc1 | inactive | 9.02 | 2.76 | 7.04 | 7.47 | inactive | 4.5 | 20.3 | inactive | 9.4 | 8.35 | inactive | 5.75 | inactive | 10.4 | 20.2 | 4.46 | 8 | inactive | inactive | growth inhibition (GI) [1]: inactive; growth inhibition (GI) [6]: inactive; growth inhibition (GI) [9]: inactive; growth inhibition (GI) [14]: inactive; growth inhibition (GI) [23]: inactive; growth inhibition (GI) [24]: inactive; growth inhibition (GI) [27]: inactive; inhibition of growth at 10 µM ([28]; OVCAR-4, 48 h, read-out: GI): 5.49%; inhibition of growth at 10 µM [29]: 2.54%; inhibition of growth at 10 µM [30]: 1.64%; growth inhibition (GI) [31]: inactive; inhibition of growth at 10 µM ([32]; A498, 48 h, read-out: GI): 19.6%; inhibition of growth at 10 µM [33]: 5.77%; growth inhibition (GI) [34]: inactive; inhibition of growth at 10 µM [35]: 10.2%; inhibition of growth at 10 µM [36]: 14.8%; inhibition of growth at 10 µM [37]: 10%; growth inhibition (GI) [38]: inactive; growth inhibition (GI) [39]: inactive; growth inhibition (GI) [40]: inactive |
| COc1ccc(Cc2nnc3sc(SCC(=O)Nc4ccc(C)cc4)nn23)cc1 | inactive | 7.47 | 7.25 | 7.23 | 1.58 | inactive | 2 | 23.8 | inactive | 3.12 | 12.2 | inactive | 3.51 | inactive | 3.61 | 12 | 6.5 | 16.7 | inactive | inactive | inhibition of growth at 10 µM ([1]; HT-29, 48 h, read-out: GI): 1.67%; inhibition of growth at 10 µM ([6]; MOLT-4, 48 h, read-out: GI): 2.19%; inhibition of growth at 10 µM ([9]; A549, 48 h, read-out: GI): 2.5%; inhibition of growth at 10 µM ([14]; read-out: GI): 3.14%; inhibition of growth at 10 µM ([23]; SK-MEL-2, 48 h, read-out: GI): 14.8%; inhibition of growth at 10 µM ([24]; SK-MEL-5, 48 h, read-out: GI): 1.64%; growth inhibition (GI) [27]: inactive; growth inhibition (GI) [28]: inactive; inhibition of growth at 10 µM [29]: 3.81%; inhibition of growth at 10 µM [30]: 4.35%; growth inhibition (GI) [31]: inactive; growth inhibition (GI) [32]: inactive; inhibition of growth at 10 µM [33]: 11.9%; inhibition of growth at 10 µM ([34]; RXF 393, 48 h, read-out: GI): 1.65%; inhibition of growth at 10 µM [35]: 13.6%; inhibition of growth at 10 µM [36]: 11.5%; inhibition of growth at 10 µM [37]: 5.79%; growth inhibition (GI) [38]: inactive; growth inhibition (GI) [39]: inactive; growth inhibition (GI) [40]: inactive |
